Results as given in PubChem BioAssay AID330 (DTP/NCI, 2004).
Where “and” joins values, the source holds several entries; their conditions need not be identical. Equal entries are not always repeated. Inconclusive results and toxic doses are left out.

System: P388 leukemia ip, CD2F1 mice, survival T/C
Assay: NCI In Vivo Anticancer Drug Screen. Data for tumor model P388 Leukemia (intraperitoneal) in CD2F1 (CDF1) mice
Details: endpoint: median survival time, higher = longer survival
Outline: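 Mice carrying the transplanted tumor received test compound or vehicle. Survival was recorded in each group, and the value is the treated-group measurement divided by that of the vehicle-treated control group.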

[1] = dose: 12.5 mg/kg/injection, schedule: Q01DX009 (ip), vehicle: saline with Tween-80
[2] = dose: 25.0 mg/kg/injection, schedule: Q01DX009 (ip), vehicle: saline with Tween-80
[3] = dose: 25.0 mg/kg/injection, schedule: Q01DX009 (ip), vehicle: saline
[4] = dose: 50.0 mg/kg/injection, schedule: Q01DX009 (ip), vehicle: saline
[5] = dose: 50.0 mg/kg/injection, schedule: Q01DX005 (ip), vehicle: Klucel (hydroxypropylcellulose) (HPC)
[6] = dose: 100.0 mg/kg/injection, schedule: Q01DX005 (ip), vehicle: Klucel (hydroxypropylcellulose) (HPC)
[7] = dose: 50.0 mg/kg/injection, schedule: Q01DX009 (ip), vehicle: Klucel (hydroxypropylcellulose) (HPC)
[8] = dose: 100.0 mg/kg/injection, schedule: Q01DX009 (ip), vehicle: Klucel (hydroxypropylcellulose) (HPC)
[9] = dose: 200.0 mg/kg/injection, schedule: Q01DX009 (ip), vehicle: Klucel (hydroxypropylcellulose) (HPC)
[10] = dose: 50.0 mg/kg/injection, schedule: Q01DX005 (ip), vehicle: saline with Tween-80
[11] = dose: 100.0 mg/kg/injection, schedule: Q01DX005 (ip), vehicle: saline with Tween-80
[12] = dose: 12.5 mg/kg/injection, schedule: Q01DX009 (ip), vehicle: saline
[13] = dose: 100.0 mg/kg/injection, schedule: Q01DX009 (ip), vehicle: saline
[14] = dose: 200.0 mg/kg/injection, schedule: Q01DX005 (ip), vehicle: saline with Tween-80
[15] = dose: 60.0 mg/kg/injection, schedule: Q01DX005 (ip), vehicle: saline with Tween-80
[16] = dose: 120.0 mg/kg/injection, schedule: Q01DX005 (ip), vehicle: saline with Tween-80
[17] = dose: 240.0 mg/kg/injection, schedule: Q01DX005 (ip), vehicle: saline with Tween-80

S=C(N/N=C1\CSCc2ccccc21)Nc1cc(Cl)ccc1Cl
T/C [1]: 87 % of control | T/C [2]: 90 % of control | T/C (dose: 50.0 mg/kg/injection, schedule: Q01DX009 (ip), vehicle: saline with Tween-80): 100 % of control

CC1(C)N=C(N)N=C(N)N1c1ccc(OCCCCNC(=O)c2ccc(S(=O)(=O)F)cc2)c(Cl)c1
T/C [2]: 150 % of control | T/C [3]: 161 % of control | T/C [4]: 159 % of control

CCOC(=O)c1cc(CC)[nH]c(=O)c1C#N
T/C (dose: 25.0 mg/kg/injection, schedule: Q01DX005 (ip), vehicle: Klucel (hydroxypropylcellulose) (HPC)): 92 % of control | T/C [5]: 98 % of control | T/C [6]: 100 % of control

CC(C)(C)C(=O)OC/C=C\COC(=O)c1ccccc1
T/C (dose: 25.0 mg/kg/injection, schedule: Q01DX009 (ip), vehicle: Klucel (hydroxypropylcellulose) (HPC)): 101 % of control | T/C [7]: 104 % of control and 95 % of control and 96 % of control | T/C [8]: 103 % of control and 104 % of control and 122 % of control | T/C [9]: 111 % of control

COC(=O)c1[nH]c(=S)[nH]c(=O)c1C
T/C [10]: 89 % of control | T/C [11]: 97 % of control

CN(CO)c1nc(N(C)CO)nc(N(C)CO)n1
T/C [1]: 110 % of control | T/C [12]: 103 % of control | T/C [2]: 119 % of control | T/C [4]: 160 % of control | T/C (dose: 100.0 mg/kg/injection, schedule: Q01DX009 (ip), vehicle: saline with Tween-80): 151 % of control | T/C [13]: 203 % of control

COC1CC(N)C(OS(C)(=O)=O)C(C)O1 (stereo unspecified)
T/C (dose: 12.5 mg/kg/injection, schedule: Q04DX003 (ip), vehicle: water): 99 % of control | T/C (dose: 25.0 mg/kg/injection, schedule: Q04DX003 (ip), vehicle: water): 99 % of control | T/C (dose: 50.0 mg/kg/injection, schedule: Q04DX003 (ip), vehicle: water): 114 % of control | T/C (dose: 100.0 mg/kg/injection, schedule: Q04DX003 (ip), vehicle: water): 114 % of control | T/C (dose: 200.0 mg/kg/injection, schedule: Q04DX003 (ip), vehicle: water): 105 % of control

CNC(=O)Sc1nnnc2ccccc12
T/C (dose: 100.0 mg/kg/injection, schedule: Q01DX001 (ip), vehicle: saline with Tween-80): 109 % of control | T/C (dose: 200.0 mg/kg/injection, schedule: Q01DX001 (ip), vehicle: saline with Tween-80): 104 % of control | T/C (dose: 400.0 mg/kg/injection, schedule: Q01DX001 (ip), vehicle: saline with Tween-80): 118 % of control

Cc1nc2cc(C(F)(F)F)cc(N)c2n1-c1ccccc1
T/C [10]: 113 % of control | T/C [11]: 106 % of control | T/C [14]: 111 % of control

CC(/C=C/c1ccccc1)=N\NC(=S)Nc1ccc(Br)cc1
T/C (dose: 100.0 mg/kg/injection, schedule: Q04DX002 (ip), vehicle: Klucel (hydroxypropylcellulose) (HPC)): 97 % of control

C=C1C(=O)OC2(CCCCC)CCCCC12 (stereo unspecified)
T/C [4]: 96 % of control | T/C [13]: 99 % of control | T/C (dose: 200.0 mg/kg/injection, schedule: Q01DX009 (ip), vehicle: saline): 96 % of control

Cc1nn(CCO)c(=O)c(C#N)c1C
T/C (dose: 25.0 mg/kg/injection, schedule: Q04DX002 (ip), vehicle: distilled water + Tween-80): 103 % of control | T/C (dose: 50.0 mg/kg/injection, schedule: Q04DX002 (ip), vehicle: distilled water + Tween-80): 108 % of control | T/C (dose: 100.0 mg/kg/injection, schedule: Q04DX002 (ip), vehicle: distilled water + Tween-80): 101 % of control | T/C (dose: 200.0 mg/kg/injection, schedule: Q04DX002 (ip), vehicle: distilled water + Tween-80): 94 % of control

COc1ccc2c(=O)cc[nH]c2c1OC
T/C [10]: 100 % of control | T/C [11]: 94 % of control | T/C [14]: 94 % of control

CNC(=O)c1nnn(Cc2ccc(OC)cc2)c1Cl
T/C [5]: 91 % of control | T/C [6]: 100 % of control | T/C (dose: 200.0 mg/kg/injection, schedule: Q01DX005 (ip), vehicle: Klucel (hydroxypropylcellulose) (HPC)): 100 % of control

COc1cc2c(c(OC)c1OC)-c1ccc(SC)c(=O)cc1[C@@H](NC1OC(CO)C(O)C(O)C1O)CC2 (stereo partly specified)
T/C (dose: 3.12 mg/kg/injection, schedule: Q01DX009 (ip), vehicle: saline): 107 % of control and 111 % of control | T/C (dose: 3.13 mg/kg/injection, schedule: Q01DX009 (ip), vehicle: saline): 115 % of control | T/C (dose: 6.25 mg/kg/injection, schedule: Q01DX009 (ip), vehicle: saline): 118 % of control [middle of 4 runs] | T/C [12]: 123 % of control | T/C [3]: 118 % of control and 122 % of control

CCOC(=O)NC(CC(NC(=O)OCC)NC(=O)OCC)NC(=O)OCC
T/C [10]: 108 % of control | T/C [11]: 107 % of control | T/C [14]: 110 % of control

C=CCSc1nc2ccc(NCN3C(=O)c4ccccc4C3=O)cc2s1
T/C [7]: 96 % of control | T/C [8]: 96 % of control | T/C [9]: 98 % of control

Cc1cc(C)[n+]([O-])c(C)c1
T/C [15]: 101 % of control | T/C (dose: 60.0 mg/kg/injection, schedule: Q01DX005 (ip), vehicle: saline): 105 % of control | T/C [16]: 99 % of control | T/C (dose: 120.0 mg/kg/injection, schedule: Q01DX005 (ip), vehicle: saline): 102 % of control | T/C [17]: 97 % of control | T/C (dose: 240.0 mg/kg/injection, schedule: Q01DX005 (ip), vehicle: saline): 105 % of control

NNc1ccc2nccn2n1
T/C (dose: 6.25 mg/kg/injection, schedule: Q01DX009 (ip), vehicle: saline with Tween-80): 95 % of control | T/C [1]: 101 % of control | T/C [2]: 94 % of control

CCOC(=O)c1c[nH]c2oc(/C=N/N3CC(CN4CCOCC4)OC3=O)cc2c1=O (stereo unspecified)
T/C (dose: 50.0 mg/kg/injection, schedule: Q01DX005 (ip), vehicle: acid diluted with saline): 114 % of control | T/C (dose: 100.0 mg/kg/injection, schedule: Q01DX005 (ip), vehicle: acid diluted with saline): 118 % of control | T/C (dose: 100.0 mg/kg/injection, schedule: Q04DX002 (ip), vehicle: saline): 113 % of control

CC#Cc1ccc(-c2ccccc2)s1
T/C (dose: 1.0 mg/kg/injection, schedule: Q01DX005 (ip), vehicle: Klucel + Tween-80): 96 % of control | T/C (dose: 2.0 mg/kg/injection, schedule: Q01DX005 (ip), vehicle: Klucel + Tween-80): 98 % of control | T/C (dose: 4.0 mg/kg/injection, schedule: Q01DX005 (ip), vehicle: Klucel + Tween-80): 94 % of control | T/C (dose: 8.0 mg/kg/injection, schedule: Q01DX005 (ip), vehicle: Klucel + Tween-80): 93 % of control

COc1ccc(C(C#N)C(=O)C(=O)Nc2ccc(C)cc2C)cc1OC (stereo unspecified)
T/C [15]: 95 % of control | T/C [16]: 100 % of control

N#CCN=NNc1ccc([N+](=O)[O-])cc1
T/C (dose: 100.0 mg/kg/injection, schedule: Q01DX001 (ip), vehicle: Klucel (hydroxypropylcellulose) (HPC)): 115 % of control | T/C (dose: 200.0 mg/kg/injection, schedule: Q01DX001 (ip), vehicle: Klucel (hydroxypropylcellulose) (HPC)): 107 % of control | T/C (dose: 400.0 mg/kg/injection, schedule: Q01DX001 (ip), vehicle: Klucel (hydroxypropylcellulose) (HPC)): 116 % of control

CCO/C=N/NC(=O)CNC(=O)C=[N+]=[N-]
T/C (dose: 180.0 mg/kg/injection, schedule: Q01DX009 (ip), vehicle: water): 172 % of control

CCOC(=O)NN(C(=O)OCC)C(=C(C1CCCCC1)N1CCOCC1)N(NC(=O)OCC)C(=O)OCC
T/C [7]: 95 % of control | T/C [8]: 98 % of control | T/C [9]: 94 % of control

CCc1cccc(CC)c1NC1=C(Cl)C(=O)c2ccccc2C1=O
T/C [15]: 100 % of control | T/C [16]: 94 % of control | T/C [17]: 104 % of control

C[n+]1c(-c2cccc(-c3ccccc3)c2)c2cc(N)ccc2c2ccccc21
T/C (dose: 1.56 mg/kg/injection, schedule: Q01DX009 (ip), vehicle: other): 124 % of control

CCN(CC)C(=O)c1c(OC)cc(C)cc1C(O)c1cc(OC)cc(OC)c1 (stereo unspecified)
T/C [10]: 99 % of control | T/C [11]: 99 % of control | T/C [14]: 96 % of control

COC(=O)C1CC(C(=O)OC)c2nc3ccccc3nc21 (stereo unspecified)
T/C (dose: 60.0 mg/kg/injection, schedule: Q01DX005 (ip), vehicle: Klucel (hydroxypropylcellulose) (HPC)): 100 % of control | T/C (dose: 120.0 mg/kg/injection, schedule: Q01DX005 (ip), vehicle: Klucel (hydroxypropylcellulose) (HPC)): 98 % of control
